Assay results as given in ChEMBL document CHEMBL5316334, “Structure-Based Design of Novel Alkynyl Thio-Benzoxazepinone Receptor-Interacting Protein Kinase-1 Inhibitors: Extending the Chemical Space from the Allosteric to ATP Binding Pockets” (J Med Chem, 2023).
Activity calls are given as the source filed them. The calls are words filed in the database; no cut-off is given here.

Columns and labels:
HT-29 [1] = assay: Anti-necroptosis activity against human HT-29 cells assessed as inhibition of TSZ-induced necroptosis preincubated for 30 mins followed by compound addition and measured for 16 hrs by Cell-titer-glo assay; type: functional, cell-based
HT-29 [2] = assay: Cytotoxicity against human HT-29 cells assessed as reduction in cell viability at 100 uM measured for 16 to 24 hrs by Cell-titer-glo assay; type: functional, cell-based; conditions: time 16-24 hrs
HT-29 [3] = assay: Cytotoxicity against human HT-29 cells assessed as reduction in cell viability measured for 16 to 24 hrs by Cell-titer-glo assay; type: functional; conditions: time 16-24 hrs
[4] = target: T1, Receptor-interacting serine/threonine-protein kinase 1 (Homo sapiens, UniProt Q13546); assay: Binding affinity to recombinant RIPK1 (unknown origin) assessed as dissociation constant by kinomescan assay
T1 sequence (Q13546 whole entry): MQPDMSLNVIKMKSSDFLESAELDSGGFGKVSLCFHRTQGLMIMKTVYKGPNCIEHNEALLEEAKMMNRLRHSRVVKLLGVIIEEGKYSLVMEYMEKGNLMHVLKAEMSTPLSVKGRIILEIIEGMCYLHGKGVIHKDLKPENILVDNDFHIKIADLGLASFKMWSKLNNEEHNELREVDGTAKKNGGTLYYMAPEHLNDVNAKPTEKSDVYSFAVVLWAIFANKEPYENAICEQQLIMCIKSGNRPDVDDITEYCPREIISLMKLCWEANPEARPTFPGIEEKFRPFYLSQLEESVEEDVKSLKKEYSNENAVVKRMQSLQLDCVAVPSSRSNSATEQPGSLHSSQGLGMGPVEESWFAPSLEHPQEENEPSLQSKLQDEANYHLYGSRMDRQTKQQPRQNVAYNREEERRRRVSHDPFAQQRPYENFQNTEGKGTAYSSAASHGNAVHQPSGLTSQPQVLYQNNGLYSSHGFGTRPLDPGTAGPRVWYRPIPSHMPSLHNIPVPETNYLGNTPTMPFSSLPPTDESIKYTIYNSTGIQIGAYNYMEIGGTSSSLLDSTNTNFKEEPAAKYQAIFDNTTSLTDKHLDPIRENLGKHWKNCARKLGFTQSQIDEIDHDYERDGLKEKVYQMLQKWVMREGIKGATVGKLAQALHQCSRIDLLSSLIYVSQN

L929 = assay: Anti-necroptosis activity against TNFalpha-induced mouse L929 cells assessed as cell viability preincubated for 1 hr followed by TNFalpha stimulation and measured after 18 hrs by Cell-titer-glo assay; type: functional, cell-based
[5] = Half life in mouse; type: ADME, organism-based; conditions: in vivo
HT-29 [6] = assay: Anti-necroptosis activity against human HT-29 cells assessed as inhibition of TSZ-induced necroptosis pretreated with compound followed by TSZ induction and measured for 12 hrs by Cell-titer-glo assay; type: functional, cell-based; conditions: dose 0.63-100 nM

| Kd [4] | half-life [5] | SMILES | EC50 (HT-29 [1]) | Activity (HT-29 [2]) | CC50 (HT-29 [3]) | EC50 (L929) | Activity (HT-29 [6]) |
| --- | --- | --- | --- | --- | --- | --- | --- |
| – | – | COc1ccccc1C#Cc1ccc2c(c1)N(C)C(=S)[C@@H](NC(=O)c1n[nH]c(Cc3ccccc3)n1)CO2 | 0.0107 µM | inactive | > 100 µM | – | – |
| – | – | CN1C(=S)[C@@H](NC(=O)c2n[nH]c(Cc3ccccc3)n2)COc2ccc(C#Cc3cccc(F)c3)cc21 | 0.0226 µM | inactive | > 100 µM | – | – |
| – | – | CN1C(=S)[C@@H](NC(=O)c2n[nH]c(Cc3ccccc3)n2)COc2ccc(C#C[Si](C)(C)C)cc21 | 0.0205 µM | inactive | > 100 µM | – | – |
| – | – | CN1C(=S)[C@@H](NC(=O)c2n[nH]c(Cc3ccccc3)n2)COc2ccc(C#Cc3cccc(C(F)(F)F)c3)cc21 | 0.0478 µM | inactive | > 100 µM | – | – |
| 0.23 µM | – | CN1C(=S)[C@@H](NC(=O)c2n[nH]c(Cc3ccccc3)n2)COc2ccc(C#Cc3cccc([N+](=O)[O-])c3)cc21 | 0.0092 µM | inactive | > 100 µM | – | – |
| – | – | CN1C(=S)[C@@H](NC(=O)c2n[nH]c(Cc3ccccc3)n2)COc2ccc(C#Cc3ccc(F)cc3)cc21 | 0.0225 µM | inactive | > 100 µM | – | – |
| – | – | CN1C(=O)[C@@H](NC(=O)c2nnc(Cc3ccccc3)[nH]2)COc2ccc(C#CC(C)(C)O)cc21 [OCADUSERTIB] | – | – | – | < 0.001 µM | – |
| – | – | CN1C(=S)[C@@H](NC(=O)c2n[nH]c(Cc3ccccc3)n2)COc2ccc(C#Cc3ccccc3F)cc21 | 0.0323 µM | inactive | > 100 µM | – | – |
| – | – | COC(=O)c1ccccc1C#Cc1ccc2c(c1)N(C)C(=S)[C@@H](NC(=O)c1n[nH]c(Cc3ccccc3)n1)CO2 | 0.0329 µM | inactive | > 100 µM | – | – |
| 0.15 µM | – | CN1C(=S)[C@@H](NC(=O)c2n[nH]c(Cc3ccccc3)n2)COc2ccc(C#Cc3ccc([N+](=O)[O-])cc3)cc21 | 0.0068 µM | inactive | > 100 µM | – | – |
| – | – | CN1C(=S)[C@@H](NC(=O)c2n[nH]c(Cc3ccccc3)n2)COc2ccc(C#Cc3ccccc3C(F)(F)F)cc21 | 0.0413 µM | inactive | > 100 µM | – | – |
| – | – | Cc1cccc(C#Cc2ccc3c(c2)N(C)C(=S)[C@@H](NC(=O)c2n[nH]c(Cc4ccccc4)n2)CO3)c1 | 0.0276 µM | inactive | > 100 µM | – | – |
| – | – | CN1C(=S)[C@@H](NC(=O)c2n[nH]c(Cc3ccccc3)n2)COc2ccccc21 | – | – | > 100 µM | – | – |
| – | – | CN1C(=S)[C@@H](NC(=O)c2n[nH]c(Cc3ccccc3)n2)COc2ccc(C#Cc3cccc(OC(F)(F)F)c3)cc21 | 0.027 µM | inactive | > 100 µM | – | – |
| – | – | CN1C(=S)[C@@H](NC(=O)c2n[nH]c(Cc3ccccc3)n2)COc2ccc(C#Cc3ccccc3[N+](=O)[O-])cc21 | 0.0151 µM | inactive | > 100 µM | – | – |
| – | – | Cc1ccccc1C#Cc1ccc2c(c1)N(C)C(=S)[C@@H](NC(=O)c1n[nH]c(Cc3ccccc3)n1)CO2 | 0.0233 µM | inactive | > 100 µM | – | – |
| – | – | COc1ccc(C#Cc2ccc3c(c2)N(C)C(=S)[C@@H](NC(=O)c2n[nH]c(Cc4ccccc4)n2)CO3)cc1 | 0.299 µM | inactive | > 100 µM | – | – |

| Kd [4] | half-life [5] | SMILES | EC50 (HT-29 [1]) | Activity (HT-29 [2]) | CC50 (HT-29 [3]) | EC50 (L929) | Activity (HT-29 [6]) |
| --- | --- | --- | --- | --- | --- | --- | --- |
| – | – | CN1C(=S)[C@@H](NC(=O)c2n[nH]c(Cc3ccccc3)n2)COc2ccc(C#Cc3ccc(C(F)(F)F)cc3)cc21 | 0.0255 µM | inactive | > 100 µM | – | – |
| 0.16 µM | – | COC(=O)c1cccc(C#Cc2ccc3c(c2)N(C)C(=S)[C@@H](NC(=O)c2n[nH]c(Cc4ccccc4)n2)CO3)c1 | 0.0108 µM | inactive | > 100 µM | – | – |
| – | < 5 min | CN1C(=O)C(Cc2c[nH]c3ccccc23)NC1=S (stereo unspecified) [NECROSTATIN] | – | – | – | – | – |
| – | – | CN1C(=S)[C@@H](NC(=O)c2n[nH]c(Cc3ccccc3)n2)COc2ccc(C#Cc3ccc(OC(F)(F)F)cc3)cc21 | 0.0104 µM | inactive | > 100 µM | – | – |
| – | – | CN1C(=S)[C@@H](NC(=O)c2n[nH]c(Cc3ccccc3)n2)COc2ccc(C#Cc3ccccc3OC(F)(F)F)cc21 | 0.0362 µM | inactive | > 100 µM | – | – |
| – | – | CN1C(=S)[C@@H](NC(=O)c2n[nH]c(Cc3ccccc3)n2)COc2ccc(C#CCc3ccccc3)cc21 | 0.0143 µM | inactive | > 100 µM | – | – |
| 0.083 µM | – | COC(=O)c1ccc(C#Cc2ccc3c(c2)N(C)C(=S)[C@@H](NC(=O)c2n[nH]c(Cc4ccccc4)n2)CO3)cc1 | 0.0058 µM | inactive | > 100 µM | – | – |
| – | – | COc1cccc(C#Cc2ccc3c(c2)N(C)C(=S)[C@@H](NC(=O)c2n[nH]c(Cc4ccccc4)n2)CO3)c1 | 0.0111 µM | inactive | > 100 µM | – | – |
| 0.092 µM | – | CN1C(=S)[C@@H](NC(=O)c2n[nH]c(Cc3ccccc3)n2)COc2ccc(C#Cc3ccc(C#N)cc3)cc21 | 0.0063 µM | inactive | > 100 µM | – | – |
| – | – | CN1C(=S)[C@@H](NC(=O)c2n[nH]c(Cc3ccccc3)n2)COc2ccc(C#Cc3ccccc3Cl)cc21 | 0.014 µM | inactive | > 100 µM | – | – |
| – | – | CN1C(=S)[C@@H](NC(=O)c2n[nH]c(Cc3ccccc3)n2)COc2ccc(C#Cc3ccccc3)cc21 | 0.0127 µM | inactive | > 100 µM | – | – |
| – | – | CN1C(=S)[C@@H](NC(=O)c2n[nH]c(Cc3ccccc3)n2)COc2ccc(C#Cc3ccc(Cl)cc3)cc21 | 0.0313 µM | inactive | > 100 µM | – | – |
| – | – | Cc1ccc(C#Cc2ccc3c(c2)N(C)C(=S)[C@@H](NC(=O)c2n[nH]c(Cc4ccccc4)n2)CO3)cc1 | 0.0174 µM | inactive | > 100 µM | – | Dose-Dependent Effect |
| – | – | CN1C(=O)[C@@H](NC(=O)c2n[nH]c(Cc3ccccc3)n2)COc2ccc(N3CC4(CCOCC4)C3)cc21 | – | – | – | < 0.001 µM | – |
| – | – | CN1C(=S)[C@@H](NC(=O)c2n[nH]c(Cc3ccccc3)n2)COc2ccc(C#Cc3cccc(Cl)c3)cc21 | 0.0239 µM | inactive | > 100 µM | – | – |
| 0.078 µM | – | CN1C(=S)[C@@H](NC(=O)c2n[nH]c(Cc3ccccc3)n2)COc2ccc(C#Cc3ccccc3C#N)cc21 | 0.0077 µM | inactive | > 100 µM | – | – |
| 0.04 µM | – | CN1C(=S)[C@@H](NC(=O)c2n[nH]c(Cc3ccccc3)n2)COc2ccc(C#CC3CC3)cc21 | 0.0087 µM | – | > 100 µM | – | – |
